Laboratory results: PubChem BioAssay (NCI)
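Compound exposure: 48 hours, 5 concentrations, 96-well plates. TGI marks complete inhibition of growth.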

How the values were obtained:
Assay in all cases: growth of human tumour cells (NCI), 48 h
786-0 renal = test system: 786-0 renal
A498 renal = test system: A498 renal
A549 NSCLC = test system: A549 NSCLC
ACHN renal = test system: ACHN renal
CAKI-1 renal = test system: CAKI-1 renal
COLO 205 colon = test system: COLO 205 colon
DU-145 prostate = test system: DU-145 prostate
EKVX NSCLC = test system: EKVX NSCLC
HCC-2998 colon = test system: HCC-2998 colon
HCT-116 colon = test system: HCT-116 colon
HCT-15 colon = test system: HCT-15 colon
HL-60(TB) leukemia = test system: HL-60(TB) leukemia
HOP-62 NSCLC = test system: HOP-62 NSCLC
HOP-92 NSCLC = test system: HOP-92 NSCLC
HT29 colon = test system: HT29 colon
IGROV1 ovarian = test system: IGROV1 ovarian
K-562 leukemia = test system: K-562 leukemia
KM12 colon = test system: KM12 colon
LOX IMVI melanoma = test system: LOX IMVI melanoma
M14 melanoma = test system: M14 melanoma
MALME-3M melanoma = test system: MALME-3M melanoma
MCF7 breast = test system: MCF7 breast
MDA-MB-435 = test system: MDA-MB-435
MDA-N = test system: MDA-N
NCI-H23 lung = test system: NCI-H23 lung
NCI-H460 lung = test system: NCI-H460 lung
NCI-H522 lung = test system: NCI-H522 lung
NCI/ADR-RES ovarian = test system: NCI/ADR-RES ovarian
OVCAR-3 ovarian = test system: OVCAR-3 ovarian
OVCAR-4 ovarian = test system: OVCAR-4 ovarian
OVCAR-5 ovarian = test system: OVCAR-5 ovarian
OVCAR-8 ovarian = test system: OVCAR-8 ovarian
PC-3 prostate = test system: PC-3 prostate
RXF 393 renal = test system: RXF 393 renal
SF-268 CNS = test system: SF-268 CNS
SF-295 CNS = test system: SF-295 CNS
SF-539 CNS = test system: SF-539 CNS
SK-MEL-2 melanoma = test system: SK-MEL-2 melanoma
SK-MEL-28 melanoma = test system: SK-MEL-28 melanoma
SK-MEL-5 melanoma = test system: SK-MEL-5 melanoma
SK-OV-3 ovarian = test system: SK-OV-3 ovarian
SN12C renal = test system: SN12C renal
SNB-19 CNS = test system: SNB-19 CNS
SNB-75 CNS = test system: SNB-75 CNS
SR leukemia = test system: SR leukemia
SW-620 colon = test system: SW-620 colon
T-47D breast = test system: T-47D breast
TK-10 renal = test system: TK-10 renal
U251 CNS = test system: U251 CNS
UACC-257 melanoma = test system: UACC-257 melanoma
UACC-62 melanoma = test system: UACC-62 melanoma
UO-31 renal = test system: UO-31 renal
BT-549 breast = test system: BT-549 breast
HS 578T breast = test system: HS 578T breast
MDA-MB-231 breast = test system: MDA-MB-231 breast
MOLT-4 leukemia = test system: MOLT-4 leukemia
NCI-H226 lung = test system: NCI-H226 lung
RPMI-8226 leukemia = test system: RPMI-8226 leukemia

Q: `OC1(c2ccccc2)CCCCCCCCC(O)(c2ccccc2)CCCCCCCC1` (stereo not drawn) was tested. Which TGI (786-0 renal) did it give?
A: > 100 µM

Q: And the TGI (A498 renal)?
A: > 100 µM

Q: And the TGI (A549 NSCLC)?
A: > 100 µM

Q: And the TGI (ACHN renal)?
A: > 100 µM

Q: What about the TGI (CAKI-1 renal) of the same compound?
A: > 100 µM

Q: What about the TGI (COLO 205 colon) of the same compound?
A: > 100 µM

Q: And the TGI (DU-145 prostate)?
A: > 100 µM

Q: What about the TGI (EKVX NSCLC) of the same compound?
A: > 100 µM

Q: What about the TGI (HCC-2998 colon) of the same compound?
A: > 100 µM

Q: And the TGI (HCT-116 colon)?
A: > 100 µM

Q: What about the TGI (HCT-15 colon) of the same compound?
A: > 100 µM

Q: What about the TGI (HL-60(TB) leukemia) of the same compound?
A: > 100 µM

Q: What about the TGI (HOP-62 NSCLC) of the same compound?
A: > 100 µM

Q: And the TGI (HOP-92 NSCLC)?
A: > 100 µM

Q: What about the TGI (HT29 colon) of the same compound?
A: > 100 µM

Q: What about the TGI (IGROV1 ovarian) of the same compound?
A: > 100 µM

Q: What about the TGI (K-562 leukemia) of the same compound?
A: > 100 µM

Q: What about the TGI (KM12 colon) of the same compound?
A: > 100 µM

Q: What about the TGI (LOX IMVI melanoma) of the same compound?
A: > 100 µM

Q: And the TGI (M14 melanoma)?
A: > 100 µM

Q: What about the TGI (MALME-3M melanoma) of the same compound?
A: > 100 µM

Q: And the TGI (MCF7 breast)?
A: > 100 µM

Q: What about the TGI (MDA-MB-435) of the same compound?
A: > 100 µM

Q: And the TGI (MDA-N)?
A: > 100 µM

Q: What about the TGI (NCI-H23 lung) of the same compound?
A: > 100 µM

Q: And the TGI (NCI-H460 lung)?
A: > 100 µM

Q: And the TGI (NCI-H522 lung)?
A: > 100 µM

Q: And the TGI (NCI/ADR-RES ovarian)?
A: > 100 µM

Q: And the TGI (OVCAR-3 ovarian)?
A: > 100 µM

Q: What about the TGI (OVCAR-4 ovarian) of the same compound?
A: > 100 µM

Q: And the TGI (OVCAR-5 ovarian)?
A: > 100 µM

Q: And the TGI (OVCAR-8 ovarian)?
A: > 100 µM

Q: And the TGI (PC-3 prostate)?
A: > 100 µM

Q: And the TGI (RXF 393 renal)?
A: > 100 µM

Q: What about the TGI (SF-268 CNS) of the same compound?
A: > 100 µM

Q: And the TGI (SF-295 CNS)?
A: > 100 µM

Q: And the TGI (SF-539 CNS)?
A: > 100 µM

Q: And the TGI (SK-MEL-2 melanoma)?
A: > 100 µM

Q: What about the TGI (SK-MEL-28 melanoma) of the same compound?
A: > 100 µM

Q: And the TGI (SK-MEL-5 melanoma)?
A: > 100 µM

Q: And the TGI (SK-OV-3 ovarian)?
A: > 100 µM

Q: What about the TGI (SN12C renal) of the same compound?
A: > 100 µM

Q: And the TGI (SNB-19 CNS)?
A: > 100 µM

Q: What about the TGI (SNB-75 CNS) of the same compound?
A: > 100 µM

Q: And the TGI (SR leukemia)?
A: > 100 µM

Q: And the TGI (SW-620 colon)?
A: > 100 µM

Q: What about the TGI (T-47D breast) of the same compound?
A: > 100 µM

Q: And the TGI (TK-10 renal)?
A: > 100 µM

Q: And the TGI (U251 CNS)?
A: > 100 µM

Q: And the TGI (UACC-257 melanoma)?
A: > 100 µM

Q: And the TGI (UACC-62 melanoma)?
A: > 100 µM

Q: What about the TGI (UO-31 renal) of the same compound?
A: > 100 µM

Q: With `CCOc1ccc2nc3cc(N=Nc4ccc(N)nc4N)ccc3c(N)c2c1` as the compound, how does the TGI (A498 renal) read?
A: 28.1 µM

Q: And the TGI (A549 NSCLC)?
A: > 47.9 µM

Q: What about the TGI (ACHN renal) of the same compound?
A: 33.9 µM

Q: What about the TGI (BT-549 breast) of the same compound?
A: 31.4 µM

Q: And the TGI (CAKI-1 renal)?
A: > 100 µM

Q: What about the TGI (DU-145 prostate) of the same compound?
A: 26.8 µM

Q: What about the TGI (EKVX NSCLC) of the same compound?
A: 45.3 µM

Q: What about the TGI (HCC-2998 colon) of the same compound?
A: 4.35 µM

Q: What about the TGI (HCT-116 colon) of the same compound?
A: 7.8 µM

Q: And the TGI (HCT-15 colon)?
A: > 100 µM

Q: And the TGI (HL-60(TB) leukemia)?
A: 10.1 µM

Q: What about the TGI (HOP-62 NSCLC) of the same compound?
A: > 100 µM

Q: And the TGI (HOP-92 NSCLC)?
A: 40.1 µM

Q: What about the TGI (HS 578T breast) of the same compound?
A: 15.2 µM

Q: And the TGI (HT29 colon)?
A: 14 µM

Q: And the TGI (IGROV1 ovarian)?
A: > 69.6 µM

Q: And the TGI (K-562 leukemia)?
A: 1.67 µM

Q: And the TGI (KM12 colon)?
A: > 100 µM

Q: What about the TGI (M14 melanoma) of the same compound?
A: 51.5 µM

Q: What about the TGI (MALME-3M melanoma) of the same compound?
A: 21 µM

Q: And the TGI (MCF7 breast)?
A: 12.2 µM

Q: What about the TGI (MDA-MB-231 breast) of the same compound?
A: 2.92 µM

Q: What about the TGI (MDA-MB-435) of the same compound?
A: > 100 µM

Q: What about the TGI (MDA-N) of the same compound?
A: 4.99 µM

Q: What about the TGI (MOLT-4 leukemia) of the same compound?
A: 4.83 µM

Q: And the TGI (NCI-H226 lung)?
A: 59.4 µM

Q: What about the TGI (NCI-H23 lung) of the same compound?
A: 21.9 µM

Q: And the TGI (NCI-H460 lung)?
A: 57.6 µM

Q: And the TGI (NCI-H522 lung)?
A: 8.71 µM

Q: What about the TGI (NCI/ADR-RES ovarian) of the same compound?
A: > 100 µM

Q: What about the TGI (OVCAR-4 ovarian) of the same compound?
A: > 78.6 µM

Q: What about the TGI (OVCAR-5 ovarian) of the same compound?
A: 41.7 µM

Q: What about the TGI (OVCAR-8 ovarian) of the same compound?
A: 34.3 µM

Q: And the TGI (PC-3 prostate)?
A: 13.5 µM

Q: And the TGI (RPMI-8226 leukemia)?
A: 61.6 µM

Q: And the TGI (RXF 393 renal)?
A: 10 µM

Q: And the TGI (SF-295 CNS)?
A: 63.4 µM

Q: And the TGI (SF-539 CNS)?
A: 4.11 µM

Q: What about the TGI (SK-MEL-2 melanoma) of the same compound?
A: 4.66 µM

Q: What about the TGI (SK-MEL-28 melanoma) of the same compound?
A: 47.2 µM

Q: What about the TGI (SK-MEL-5 melanoma) of the same compound?
A: 55.2 µM

Q: What about the TGI (SK-OV-3 ovarian) of the same compound?
A: > 30.3 µM

Q: What about the TGI (SN12C renal) of the same compound?
A: 6.38 µM

Q: What about the TGI (SNB-19 CNS) of the same compound?
A: 3.08 µM

Q: And the TGI (SNB-75 CNS)?
A: 5.11 µM

Q: And the TGI (SW-620 colon)?
A: > 34.9 µM

Q: What about the TGI (TK-10 renal) of the same compound?
A: 28.6 µM

Q: And the TGI (U251 CNS)?
A: 1.93 µM

Q: And the TGI (UACC-257 melanoma)?
A: 57.1 µM

Q: And the TGI (UACC-62 melanoma)?
A: 33.7 µM

Q: What about the TGI (UO-31 renal) of the same compound?
A: > 66.3 µM
